Data published in US10342796B2, “Acrylanilide derivative, preparation method, and applications thereof in pharmacy” (Ancureall Pharmaceutical (Shanghai) Co., Ltd., priority 2015, dated 2019).

What was measured:
Assay in all cases: Growth inhibition GI50 in vitro (CCK8/MTT, 72 h)
Assay type in all cases: cell-based, human
[1] = tested on: A431 (EGFR WT, amplification and high expression); conditions: Homo sapiens, A-431; EGFR wild type cell line; range of GI50; read-out: GI50 A431
[2] = tested on: A549 (EGFR WT); conditions: Homo sapiens, A549; EGFR wild type cell line; range of GI50; read-out: GI50 A549
[3] = tested on: H460 (EGFR wt, Kras G61H); conditions: Homo sapiens, NCI-H460; EGFR wild type cell line; range of GI50; read-out: GI50 H460
[4] = tested on: H1299 (EGFR wt, Nras Q61K); conditions: Homo sapiens, NCI-H1299; EGFR wild type cell line; range of GI50; read-out: GI50 H1299
[5] = tested on: N87 (HER2 Amp); conditions: Homo sapiens; HER2 positive cell line; range of GI50; read-out: GI50 N87
[6] = tested on: AU565 (Her2 amp); conditions: Homo sapiens, AU565; HER2 positive cell line; range of GI50; read-out: GI50 AU-565
[7] = tested on: SK-BR-3 (Her2 amp); conditions: Homo sapiens, SK-BR-3; HER2 positive cell line; range of GI50; read-out: GI50 SK-BR-3
Experimental: Human lung adenocarcinoma cell line Calu-3 (ATCC) was cultured with 1×MEM complete medium (10% FBS, 1% double-antibiotics, 1% NEAA (Gibco), 2 mM glutamine and 1 mM of sodium pyruvate). Human breast cancer cell line SK-BR-3 was cultured with McCOY'S5A complete medium (10% FBS). Human colon cancer cell line SNU1040 (HER2 V777M positive) (ATCC) and human bronchoalveolar adenocarcinoma cell line NCI-H1781 (expressing HER2 exon 20 G776VC mutation) (ATCC) were cultured with 1×RPMI1640 complete medium (10% FBS), respectively.
The suspension cells were collected by centrifugation. The supernatant was discard and the cell pellet was resuspended and counted. Different cell concentrations (5˜10×10^4 cells/mL) were prepared according to the growth cycle of each cell line and then seeded on a 96-well plate (Corning), 100 μL/well. The cells were incubated over night at 37° C., 5% CO2. The compounds were added to the cells on the second day with 2 wells in parallel. The final concentration of organic solvent shall not exceed 1%. The cells were continually incubated for 72 h, and then subjected to MTT assay.
The present compounds and the reference compounds were dissolved with DMSO (Sigma), respectively. […] The storage concentration of compounds was 10 mM and kept at −20° C. They were diluted by 2 times or 10 times with serial dilution before using.
Dojindo CCK8 reagent kit was used as MTT assay. […] FC meter was used as microplate reader.
Adherent cell culture medium was discard and immediately replaced with fresh prepared medium which contains 10% CCK8 reagent (100 μL/well). For the suspension cells, CCK8 was directly added to 10% of the final concentration. The cells were continually incubated for 1˜4 h. When the color of control wells turned to dark yellow, the absorption value was measured at OD450 nm. The cell growth rate was calculated according to the following formula: cell growth rate (%)=100*(T−T0)/(C−T0), T=optical density of drug treatment cell well—optical density of blank control well; T0=optical density of cell well before drug treatment—optical density of blank control well; C=optical density of cell well of solvent control group—optical density of blank control well. […] The experiment was independently repeated 1˜3 times, and subject to biological statistical analysis.

[8] = tested on: PC-9ER (EGFR delE746-A750/T790M); conditions: Homo sapiens, PC-9/ER; EGFR mutant cell line; range of GI50; read-out: GI50 PC9ER
[9] = tested on: HCC827 (EGFR dE746-A750); conditions: Homo sapiens, HCC827; EGFR mutant cell line; range of GI50; read-out: GI50 HCC827
[10] = tested on: PC-9 (EGFR dE746-A750); conditions: Homo sapiens; EGFR mutant cell line; range of GI50; read-out: GI50 PC-9
[11] = tested on: H1975 (EGFR L858R/T790M); conditions: Homo sapiens, NCI-H1975; EGFR mutant cell line; range of GI50; read-out: GI50 H1975

Row | GI50 [1] | GI50 [2] | GI50 [3] | GI50 [4] | GI50 [7] | GI50 [8] | GI50 [9] | GI50 [10] | GI50 [11] | Compound | GI50 [5] | GI50 [6]
1 | 0.1 to 1 µM | > 1 µM | > 1 µM | > 1 µM | 0.1 to 1 µM | 0.01 to 0.1 µM | 0.01 to 0.1 µM | 0.1 to 1 µM | 0.01 to 0.1 µM | C=CC(=O)Nc1cc(Nc2nccc(-n3cc(C)c4ccccc43)n2)c(OC)cc1N(C)CCN(C)C [Compound 57, N-(5-(4-(3-methyl-1H-indol-1-yl)-pyrimidin-2-ylamino)-2-(2-(dimethylamino-ethyl)-methyl-amino)-4-methoxyl-phenyl)-acrylamide] | 0.1 to 1 µM | 0.1 to 1 µM
2 | 0.1 to 1 µM | > 1 µM | > 1 µM | > 1 µM | 0.1 to 1 µM | 0.01 to 0.1 µM | 0.01 to 0.1 µM | 0.01 to 0.1 µM | 0.01 to 0.1 µM | C=CC(=O)Nc1cc(Nc2nccc(-n3ccc4ccc(OC)cc43)n2)c(OC)cc1N(C)CCN(C)C [Compound 58] | 0.1 to 1 µM | 0.1 to 1 µM
3 | 0.1 to 1 µM | > 1 µM | > 1 µM | > 1 µM | 0.1 to 1 µM | 0.01 to 0.1 µM | 0.01 to 0.1 µM | 0.01 to 0.1 µM | 0.01 to 0.1 µM | C=CC(=O)Nc1cc(Nc2nccc(-n3ccc4ccc(C)cc43)n2)c(OC)cc1N(C)CCN(C)C [Compound 59] | 0.1 to 1 µM | 0.1 to 1 µM
4 | > 1 µM | > 1 µM | > 1 µM | > 1 µM | 0.1 to 1 µM | 0.1 to 1 µM | 0.1 to 1 µM | 0.1 to 1 µM | 0.1 to 1 µM | C=CC(=O)Nc1cc(Nc2nccc(-n3ccc4ccc(C#N)cc43)n2)c(OC)cc1N(C)CCN(C)C [Compound 60, N-{5-[4-(6-cyano-indol-1-yl)-pyrimidin-2-ylamino]-2-[(2-dimethylamino-ethyl)-methyl-amino]-4-methoxyl-phenyl}-acrylamidel] | 0.1 to 1 µM | 0.1 to 1 µM
5 | 0.1 to 1 µM | > 1 µM | > 1 µM | > 1 µM | 0.1 to 1 µM | < 0.01 µM | 0.01 to 0.1 µM | 0.01 to 0.1 µM | < 0.01 µM | C=CC(=O)Nc1cc(Nc2nccc(-n3ccc4ccc(Cl)cc43)n2)c(OC)cc1N(C)CCN(C)C [Compound 61, N-(5-(4-(6-chloro-1H-indol-1-yl)-pyrimidin-2-ylamino)-2-((2-(dimethylamino)ethyl)-methyl-amino)-4-methoxyl-phenyl)-acrylamide] | 0.1 to 1 µM | 0.1 to 1 µM
6 | 0.1 to 1 µM | > 1 µM | > 1 µM | > 1 µM | 0.01 to 0.1 µM | 0.01 to 0.1 µM | < 0.01 µM | 0.01 to 0.1 µM | 0.01 to 0.1 µM | C=CC(=O)Nc1cc(Nc2nccc(-n3ccc4ccc(Br)cc43)n2)c(OC)cc1N(C)CCN(C)C [Compound 62, N-(5-(4-(6-bromo-1H-indol-1-yl)-pyrimidin-2-ylamino)-2-((2-(dimethylamino)ethyl)-methyl-amino)-4-methoxyl-phenyl)-acrylamide] | 0.01 to 0.1 µM | 0.01 to 0.1 µM
7 | 0.1 to 1 µM | > 1 µM | > 1 µM | > 1 µM | 0.1 to 1 µM | 0.01 to 0.1 µM | 0.1 to 1 µM | 0.1 to 1 µM | 0.01 to 0.1 µM | C=CC(=O)Nc1cc(Nc2nccc(-n3ccc4cc(C)ccc43)n2)c(OC)cc1N(C)CCN(C)C [Compound 77, N-(5-(4-(5-methyl-1H-indol-1-yl)-pyrimidin-2-ylamino)-2-((2-dimethylamino-ethyl)-methyl-amino)-4-methoxyl-phenyl)-acrylamide] | 0.1 to 1 µM | 0.1 to 1 µM
8 | 0.1 to 1 µM | > 1 µM | > 1 µM | > 1 µM | 0.01 to 0.1 µM | 0.01 to 0.1 µM | 0.01 to 0.1 µM | 0.01 to 0.1 µM | < 0.01 µM | C=CC(=O)Nc1cc(Nc2nccc(-n3ccc4cc(OC)ccc43)n2)c(OC)cc1N(C)CCN(C)C [Compound 78, N-(5-(4-(5-methoxyl-1H-indol-1-yl)-pyrimidin-2-ylamino)-2-((2-dimethylamino-ethyl)-methyl-amino)-4-methoxyl-phenyl)-acrylamide] | < 0.01 µM | 0.01 to 0.1 µM
9 | 0.1 to 1 µM | > 1 µM | > 1 µM | > 1 µM | 0.1 to 1 µM | 0.01 to 0.1 µM | < 0.01 µM | 0.01 to 0.1 µM | < 0.01 µM | C=CC(=O)Nc1cc(Nc2nccc(-n3ccc4cc(F)ccc43)n2)c(OC)cc1N(C)CCN(C)C [Compound 83] | 0.01 to 0.1 µM | 0.1 to 1 µM
10 | 0.1 to 1 µM | > 1 µM | > 1 µM | > 1 µM | 0.01 to 0.1 µM | 0.01 to 0.1 µM | 0.01 to 0.1 µM | 0.01 to 0.1 µM | 0.01 to 0.1 µM | C=CC(=O)Nc1cc(Nc2nccc(-n3ccc4c(C)cccc43)n2)c(OC)cc1N(C)CCN(C)C [Compound 98, N-(5-(4-(4-methyl-1H-indol-1-yl)-pyrimidin-2-ylamino)-2-(2-(dimethylamino-ethyl)-methyl-amino)-4-methoxyl-phenyl)-acrylamide] | 0.01 to 0.1 µM | 0.1 to 1 µM
11 | 0.1 to 1 µM | > 1 µM | > 1 µM | > 1 µM | 0.1 to 1 µM | 0.01 to 0.1 µM | 0.01 to 0.1 µM | 0.01 to 0.1 µM | 0.01 to 0.1 µM | C=CC(=O)Nc1cc(Nc2nccc(-n3ccc4cc(F)c(F)cc43)n2)c(OC)cc1N(C)CCN(C)C [Compound 103, N-(5-(4-(5,6-difluoro-1H-indol-1-yl)-pyrimidin-2-ylamino)-2-(2-(dimethylamino-ethyl)-methyl-amino)-4-methoxyl-phenyl)-acrylamide] | 0.01 to 0.1 µM | 0.1 to 1 µM
12 | > 1 µM | > 1 µM | > 1 µM | > 1 µM | 0.01 to 0.1 µM | 0.01 to 0.1 µM | 0.01 to 0.1 µM | 0.01 to 0.1 µM | 0.01 to 0.1 µM | C=CC(=O)Nc1cc(Nc2nccc(-n3nnc4ccccc43)n2)c(OC)cc1N(C)CCN(C)C [Compound 107] | 0.01 to 0.1 µM | 0.1 to 1 µM
13 | 0.1 to 1 µM | > 1 µM | > 1 µM | > 1 µM | 0.01 to 0.1 µM | < 0.01 µM | < 0.01 µM | < 0.01 µM | 0.01 to 0.1 µM | C=CC(=O)Nc1cc(Nc2ncnc(Nc3cccc(Cl)c3)n2)c(OC)cc1N(C)CCN(C)C [Compound 108, N-(5-(4-(3-chloro-phenylamino)-[1,3,5]triazin-2-ylamino)-2-((2-dimethylamino-ethyl)-methyl-amino)-4-methoxyl-phenyl)-acrylamide] | < 0.01 µM | 0.01 to 0.1 µM
